Measurements from patent US20120214862A1, “MODULATION OF FACTOR 7 EXPRESSION” (ISIS Pharmaceuticals, Inc., priority 2009, published 2012).
In the oligonucleotide strings, read from the 5' end, every base follows the letter of its sugar. An asterisk marks phosphorothioate; unmarked linkages are phosphodiester. Other units and linkages are bracketed, terminal groups are in braces. A string of capitals states the bases alone. e = 2'-O-(2-methoxyethyl) (MOE); [5mC] = 5-methylcytosine; d = 2'-deoxy (DNA)

What was measured:
[1] = tested on: human Factor 7 mRNA; assay: Antisense inhibition of human Factor 7 mRNA in HepB3 cells, lipofectin, 50 nM, real-time RT-PCR; format: cell-based; conditions: HepB3 cells; for % Inhibition (human Factor 7 mRNA): 50 nM, ~24 h
Procedure, shortened: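 Percent inhibition of Factor 7 mRNA, relative to untreated control, comes from real-time RT-PCR with RIBOGREEN normalization, using primer probe set RTS 2927 in some runs. RNA was taken roughly 24 h after lipofectin delivery of 50 nM oligonucleotide into HepB3 cells.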

[2] = tested on: human Factor 7 mRNA; assay: Dose-dependent antisense inhibition of human Factor 7 in HepB3 cells, transfection with lipofectin; format: cell-based; conditions: HepB3, lipofectin, ~16 h
Experimental: Cells were plated at a density of 4,000 cells per well and treated with lipofectin reagent with 3.125 nM, 6.25 nM, 12.5 nM, 25 nM, 50 nM, and 100 nM concentrations of antisense oligonucleotide, as indicated in Table 3. After a treatment period of approximately 16 hours, RNA was isolated from the cells and Factor 7 mRNA levels were measured by real-time RT-PCR, as described herein. Human Factor 7 primer probe set RTS 2927 (forward sequence: […], incorporated herein as SEQ ID NO: 164; reverse sequence: […], incorporated herein as SEQ ID NO: 165; probe sequence: TGGGTGGTCTCCGCGGCCX, incorporated herein as SEQ ID NO: 166) was used to measure mRNA levels. Factor 7 mRNA levels were adjusted according to total RNA content as measured by RIBOGREEN®. Results are presented as percent inhibition of Factor 7, relative to untreated control cells.
Cells were plated at a density of 4,000 cells per well and transfected using lipofectin reagent with 6.25 nM, 12.5 nM, 25.0 nM, 50.0 nM, and 100.0 nM concentrations of antisense oligonucleotide, as indicated in Table 7. After a treatment period of approximately 16 hours, RNA was isolated from the cells and Factor 7 mRNA levels were measured by real-time RT-PCR, as described herein. Human Factor 7 primer probe set RTS 2927 was used to measure mRNA levels. Factor 7 mRNA levels were adjusted according to total RNA content as measured by RIBOGREEN®. Results are presented as percent inhibition of Factor 7, relative to untreated control cells.
Cells were plated at a density of 4,000 cells per well and transfected using lipofectin reagent with 3.125 nM, 6.25 nM, 12.5 nM, 25 nM, 50 nM, and 100 nM concentrations of antisense oligonucleotide, as specified in Table 14. After a treatment period of approximately 16 hours, RNA was isolated from the cells and Factor 7 mRNA levels were measured by quantitative real-time PCR. Human Factor 7 primer probe set RTS 2927 was used to measure mRNA levels. Factor 7 mRNA levels were adjusted according to total RNA content, as measured by RIBOGREEN®. Results are presented as percent inhibition of Factor 7, relative to untreated control cells.

[3] = lipofectin, 50 nM antisense oligonucleotide, approximately 24 hours, primer probe set RTS 2927, relative to untreated control
[4] = gapmers targeted to nucleobases 13760 to 13789 of SEQ ID NO: 1 (Table 10)
[5] = Example 1, lipofectin, relative to untreated control cells
[6] = Example 4, lipofectin, relative to untreated control
[7] = gapmers targeted to nucleobases 11830 to 11869 of SEQ ID NO: 1 (Table 9)

Substance: 416455 (antisense e[5mC]*eG*e[5mC]*e[5mC]*eG*dG*d[5mC]*dT*d[5mC]*dT*dG*d[5mC]*dT*d[5mC]*dA*eT*e[5mC]*e[5mC]*e[5mC]*e[5mC]) [compound 416455]
- % Inhibition of human Factor 7 mRNA levels [1, 3]: 72%
- % Inhibition of human Factor 7 mRNA levels [1, 4]: 51%
- percent inhibition of Factor 7 mRNA, 6.25 nM ([2]; Example 5): 28%
- percent inhibition of Factor 7 mRNA, 12.5 nM ([2]; Example 5): 44%
- percent inhibition of Factor 7 mRNA, 25.0 nM ([2]; Example 5): 64%
- percent inhibition of Factor 7 mRNA, 50.0 nM ([2]; Example 5): 78%
- percent inhibition of Factor 7 mRNA, 100.0 nM ([2]; Example 5): 87%

Substance: 416477 (antisense e[5mC]*eA*eG*e[5mC]*e[5mC]*dT*dG*dA*dG*dG*d[5mC]*d[5mC]*dA*dG*d[5mC]*eA*eG*eA*eT*e[5mC]) [compound 416477]
- % Inhibition of human Factor 7 mRNA levels [1, 3]: 74%
- % Inhibition of human Factor 7 mRNA levels ([1]; gapmers targeted to nucleobases 14707 to 14732 of SEQ ID NO: 1 (Table 11)): 71%
- percent inhibition of Factor 7 mRNA, 6.25 nM ([2]; Example 5): 21%
- percent inhibition of Factor 7 mRNA, 12.5 nM ([2]; Example 5): 46%
- percent inhibition of Factor 7 mRNA, 25.0 nM ([2]; Example 5): 64%
- percent inhibition of Factor 7 mRNA, 50.0 nM ([2]; Example 5): 78%
- percent inhibition of Factor 7 mRNA, 100.0 nM ([2]; Example 5): 87%

Substance: 416508 (antisense e[5mC]*eG*eA*eG*eT*dT*d[5mC]*dT*dG*d[5mC]*dA*dG*dG*dA*dG*e[5mC]*eG*eG*e[5mC]*e[5mC]) [compound 416508]
- % Inhibition of human Factor 7 mRNA levels [1, 3]: 67%
- % Inhibition of human Factor 7 mRNA levels ([1]; gapmers (5-10-5, 3-14-3, 2-13-5 MOE) targeted to nucleobases 4868 to 4899 of SEQ ID NO: 1): 67%
- percent inhibition of Factor 7 mRNA, 6.25 nM ([2]; Example 5): 42%
- percent inhibition of Factor 7 mRNA, 12.5 nM ([2]; Example 5): 51%
- percent inhibition of Factor 7 mRNA, 25.0 nM ([2]; Example 5): 71%
- percent inhibition of Factor 7 mRNA, 50.0 nM ([2]; Example 5): 79%
- percent inhibition of Factor 7 mRNA, 100.0 nM ([2]; Example 5): 89%

Substance: 407936 (antisense eG*eG*e[5mC]*eA*eT*dT*d[5mC]*dG*d[5mC]*d[5mC]*dA*d[5mC]*d[5mC]*dA*dT*eG*e[5mC]*eA*eT*eG) [compound 407936]
- % Inhibition (human Factor 7 mRNA) [1, 5]: 91%
- percent inhibition of Factor 7 mRNA, 3.125 nM ([2]; Example 2, 3.125 nM): 45%
- percent inhibition of Factor 7 mRNA, 6.25 nM ([2]; Example 2): 77%
- percent inhibition of Factor 7 mRNA, 12.5 nM ([2]; Example 2): 79%
- percent inhibition of Factor 7 mRNA, 25.0 nM ([2]; Example 2): 86%
- percent inhibition of Factor 7 mRNA, 50.0 nM ([2]; Example 2): 91%
- percent inhibition of Factor 7 mRNA, 100.0 nM ([2]; Example 2): 90%

Substance: 416472 (antisense e[5mC]*eA*eG*e[5mC]*e[5mC]*dT*dT*dG*dG*d[5mC]*dT*dT*dT*d[5mC]*dT*e[5mC]*eT*e[5mC]*e[5mC]*eA) [compound 416472]
- % Inhibition of human Factor 7 mRNA levels [1, 3]: 76%
- percent inhibition of Factor 7 mRNA, 6.25 nM ([2]; Example 5): 16%
- percent inhibition of Factor 7 mRNA, 12.5 nM ([2]; Example 5): 44%
- percent inhibition of Factor 7 mRNA, 25.0 nM ([2]; Example 5): 64%
- percent inhibition of Factor 7 mRNA, 50.0 nM ([2]; Example 5): 80%
- percent inhibition of Factor 7 mRNA, 100.0 nM ([2]; Example 5): 88%

Substance: 407597 (antisense eT*eG*eT*eT*eG*dA*d[5mC]*dA*dT*dT*d[5mC]*d[5mC]*d[5mC]*d[5mC]*dA*eT*eG*eG*eG*eA) [compound 407597]
- % Inhibition (human Factor 7 mRNA) [1, 5]: 39%

Substance: 407651 (antisense eA*eG*e[5mC]*e[5mC]*eT*d[5mC]*dA*dA*dA*d[5mC]*dA*dT*d[5mC]*dT*dA*eT*e[5mC]*eA*eA*eA) [compound 407651]
- % Inhibition (human Factor 7 mRNA) [1, 5]: 32%

Substance: 407649 (antisense eG*eA*eG*eG*eG*dT*dT*d[5mC]*dA*dT*dT*dT*d[5mC]*dA*dG*eT*eG*eA*eT*eG) [compound 407649]
- % Inhibition (human Factor 7 mRNA) [1, 5]: 24%

Substance: 407917 (antisense eA*e[5mC]*eA*e[5mC]*e[5mC]*d[5mC]*d[5mC]*dA*dA*dA*dG*dT*dG*dG*d[5mC]*e[5mC]*e[5mC]*eA*e[5mC]*eG) [compound 407917]
- % Inhibition (human Factor 7 mRNA) [1, 5]: 70%

Substance: 422268 (antisense eA*eG*d[5mC]*dG*d[5mC]*dG*dG*dA*dA*dG*dA*dA*dG*dG*dG*eA*e[5mC]*eG*eG*eA) [compound 422268]
- % Inhibition (human Factor 7 mRNA) [1, 6]: 63%

Substance: 407618 (antisense eG*eT*eA*eT*eT*dT*dT*dT*d[5mC]*d[5mC]*dA*d[5mC]*dA*dT*dG*eG*eA*eT*eA*eT) [compound 407618]
- % Inhibition (human Factor 7 mRNA) [1, 5]: 42%

Substance: 407602 (antisense e[5mC]*eT*eG*e[5mC]*eA*dG*d[5mC]*d[5mC]*dA*dG*dG*d[5mC]*dA*dG*d[5mC]*e[5mC]*e[5mC]*eT*eG*eA) [compound 407602]
- % Inhibition (human Factor 7 mRNA) [1, 5]: 81%

Substance: 422101 (antisense eT*eG*eA*eG*eG*dA*dG*dA*d[5mC]*dA*dA*dT*dG*dG*dT*e[5mC]*eA*eG*eG*eG) [compound 422101]
- % Inhibition of human Factor 7 mRNA levels [1, 7]: 42%

Substance: 422271 (antisense e[5mC]*eT*dG*dA*dG*d[5mC]*dG*d[5mC]*dG*dG*dA*dA*dG*dA*dA*eG*eG*eG*eA*e[5mC]) [compound 422271]
- % Inhibition (human Factor 7 mRNA) [1, 6]: 32%

Substance: 407600 (antisense eT*eG*eA*eA*eG*d[5mC]*d[5mC]*d[5mC]*dA*dA*dG*d[5mC]*dA*dG*dA*eA*eG*eG*e[5mC]*eA) [compound 407600]
- % Inhibition (human Factor 7 mRNA) [1, 5]: 61%

Substance: 416478 (antisense eG*eT*e[5mC]*eT*e[5mC]*d[5mC]*dA*dG*d[5mC]*dA*dA*dT*dG*dA*dA*eG*eG*e[5mC]*eA*eG) [compound 416478]
- % Inhibition of human Factor 7 mRNA levels [1, 3]: 44%

Substance: 416456 (antisense e[5mC]*eT*eG*e[5mC]*eG*d[5mC]*d[5mC]*dA*d[5mC]*d[5mC]*d[5mC]*dG*d[5mC]*d[5mC]*dG*eG*e[5mC]*eT*e[5mC]*eT) [compound 416456]
- % Inhibition of human Factor 7 mRNA levels [1, 3]: 58%
- % Inhibition of human Factor 7 mRNA levels [1, 4]: 50%

Substance: 416503 (antisense eT*eA*eG*e[5mC]*e[5mC]*dA*d[5mC]*d[5mC]*d[5mC]*d[5mC]*dG*d[5mC]*dG*dG*dG*e[5mC]*eT*eG*eG*e[5mC]) [compound 416503]
- % Inhibition of human Factor 7 mRNA levels [1, 3]: 0%

Substance: 416464 (antisense eA*eA*e[5mC]*eA*eT*dG*dT*dA*d[5mC]*dT*d[5mC]*d[5mC]*dG*dT*dG*eA*eT*eA*eT*eT) [compound 416464]
- % Inhibition of human Factor 7 mRNA levels [1, 3]: 53%

Substance: 422196 (antisense eT*eA*e[5mC]*dT*dG*dA*dG*d[5mC]*dG*d[5mC]*dG*dG*dA*dA*dG*dA*dA*eG*eG*eG) [compound 422196]
- % Inhibition (human Factor 7 mRNA) [1, 6]: 2%

Substance: 416432 (antisense eA*eG*e[5mC]*eA*e[5mC]*dT*dG*d[5mC]*dT*d[5mC]*d[5mC]*dT*d[5mC]*d[5mC]*dT*eT*eG*e[5mC]*eA*e[5mC]) [compound 416432]
- % Inhibition of human Factor 7 mRNA levels [1, 3]: 44%

Substance: 422179 (antisense e[5mC]*eA*e[5mC]*d[5mC]*d[5mC]*dG*d[5mC]*d[5mC]*dG*dG*d[5mC]*dT*d[5mC]*dT*dG*d[5mC]*dT*e[5mC]*eA*eT) [compound 422179]
- % Inhibition of human Factor 7 mRNA levels [1, 4]: 43%

Substance: 422237 (antisense e[5mC]*eA*dA*dT*dG*dG*dT*d[5mC]*dA*dG*dG*dG*d[5mC]*dT*dG*eG*eT*eT*eT*eT) [compound 422237]
- % Inhibition of human Factor 7 mRNA levels [1, 7]: 50%

Substance: 407906 (antisense eA*e[5mC]*e[5mC]*eA*e[5mC]*dG*dG*dG*d[5mC]*dT*dG*dG*dT*dG*d[5mC]*eA*eG*eG*e[5mC]*eG) [compound 407906]
- % Inhibition (human Factor 7 mRNA) [1, 5]: 4%
